Patent US8603806B2, “Materials and methods for cell-based assays” (The Ohio State Universtiy Research Foundation, priority 2005, dated 2013)
Values after ≈ are worked out from the molar mass of the structure shown. “Also recorded” adds a separate entry of the source. Read-outs that look alike come from different tables or passages of the source.

Columns and labels:
HT-29-GFP [1] = system: HT-29-GFP
Text: (§1) Colon cancer is the third most frequently occurring cancer in the US and causes large numbers of deaths, second only to lung cancer. Treatment of progressed colon cancer involves surgical extraction combining chemotherapy and immunotherapy. The survival rate of colon cancer patients is only 55% due to the low effectiveness of these therapies. […] Butyric acid is a biological response modifier (BRM) and it acts synergistically with 5-FU against colorectal cancers by decreasing thymidine kinase mRNA. As a BRM, it can also increase cell specific productivity at the expense of inhibiting cell growth. […] In this case, the cytotoxicity of a chemical in 3-D cultures was defined as a concentration range of the chemical.

ES cells [2] = experiment: 3-D cytotoxicity (proliferation) assay, ES-GFP cells in PET scaffolds, low density; assay type: cell-based; details: for IC50: read-out: 3-D cultures Ig50; for Ig50 in 2-D as times of Ig50 in 3-D: ratio 2-D/3-D
Protocol: For the 3-D cytotoxicity assay, 25000 cells in 25 μl medium were seeded into each PET scaffold. After 6 h incubation to allow cell attachment, 180 μl medium were added to each well and incubated for another 18 h before transferring the seeded matrix to the center of the microbioreactor chamber containing 3 ml of the ES medium on the modified 96-well plate. The plates were then stacked onto a rotational shaker and put into a 37° C. CO2 incubator. The culture fluorescence was measured twice per day with a Cytofluor Series 4000 plate reader. Fluorescence signals from live cells were calculated as the values from the central well of the bioreactor minus the background from the surrounding medium and scaffold.
(§2) With the exponential-phase specific growth rate data, the cytotoxicity of various chemicals can be better evaluated by their Ig50 values defined as the concentration of the chemical causing 50% reduction in the exponential-phase specific cell growth rate.

embryonic stem cell [3] = details: embryotoxicity test previously reported; cited from earlier work
HT-29-GFP [4] = experiment: HT-29-GFP proliferation assay, 2-D with cell counting; assay type: cell-based; details: Homo sapiens, read-out: 2-D with cell counting (Ig50)
Text: as §1

embryonic stem cell [5] = details: embryotoxicity test previously reported; cited from earlier work; remark: listed apart in the source
HT-29-GFP [6] = details: for times more resistance in tumor-like structure: compared with the results from 3-D proliferation assays (3-D low density cells); for effectiveness on high density colon cancer cells / time after drug adding at which fluorescence changed: tumor-like constructs
Text: as §1
Gemcitabine is an S-phase specific drug.

HT-29 = experiment: Perfusion culture of HT-29 in microfluidic bioreactor array; assay type: cell-based, human; details: 2 μg/ml fed continuously from beginning of perfusion; vs control without drug
Protocol: A human colon cancer cell line HT-29 (ATCC: HTB-38™) was maintained in Dulbecco's Modified Eagle's Medium (DMEM, Gibco) supplemented with 10% fetal bovine serum (FBS, Gibco) in a cell culture incubator at 37° C. with 5% CO2. […] Then cells were diluted and seeded in a 96 well plate at around 5 cells per well. One green fluorescent colony was isolated and expanded in the absence of selective pressure geneticin (G-418, Gibco). The stability of the transfected cell line was verified by FACSCalibur (B-D) (>97%) compared to the negative control.
Before cell culture, the PET matrices were cut to small square patches (2.5 mm×3 mm) and then soaked in water and sterilized in an autoclave at 121° C. for 15 min. […] Then each seeded scaffold was transferred gently to a new well on the same 384-well plate, which was followed by fluorescence intensity measurement in the microplate reader at 485 nm excitation and 535 nm emission. The scaffolds with similar fluorescence intensity were selected and transferred to the wells in the middle two rows of the microbioreactor array. […]
Four 10 mL, syringes were autoclaved and filled with the maintenance media, which were then seated on a syringe pump (PHD 2000, Harvard Apparatus). […] Cell proliferation was analyzed twice a day with the specific plate definition scheme in the microplate reader. […]

ES cells [7] = experiment: 3-D high-density ES tissue constructs cytotoxicity; assay type: cell-based; details: for Extent of cell kill: 3-D high-density, at maximum dose; for Rf (resistance factor): ratio between EC50 and Ig50; for EC50: 3-D high-density cell cultures, 50% of maximum fluorescence reduction, exposure four or six days after seeding
Text: The effects of various drugs on ES cells grown in 3-D after reaching a high cell density (exposure four or six days after seeding the matrices) were studied and the results are shown in FIG. 14. EC50 (the concentration required for obtaining 50% of a maximum effect) is used to evaluate a drug's cytotoxicity effect on a high-density 3-D cell or tissue construct. Here, if the elimination of cells is considered as the maximum effect of a chemical, an EC50 is not always reached. […] For this case, the maximum effects were defined as the fluorescence reduction caused by the saturation concentration (DM and DPH) or a very high dose compared to doses used in 2-D assays (Penicillin G and 5-FU). In addition, it was also noticed that maximal effects changed along with time, so the time point with the largest value of the maximal effects was used for cytotoxicity definition. Rf (resistance factor) is defined as the ratio between EC50 and Ig50.

ES cells [8] = experiment: 2-D cytotoxicity assay, ES-GFP cells in 96-well plates; assay type: cell-based; details: concentration causing 50% reduction in exponential-phase specific growth rate, drug added one day after inoculation; for IC50: read-out: 2-D cultures Ig50
Protocol: The 2-D cytotoxicity assay was performed in 96-well plates by inoculating 5000 cells into each well containing 150 μl of ES medium. The drug was added one day after inoculation. Fluorescent signals were measured twice per day in the culture plates. The fluorescence given by live cells was calculated as the signals obtained after replacing culture medium with the same volume of PBS minus the blanks.
as §2

ES-GFP cells [9] = experiment: Acute cytotoxicity live-cell kinetic assay, 3-D ES-GFP; assay type: cell-based; details: high density 3-D ES-GFP, 2000 RFU; different doses
Protocol: For the live-cell kinetic assays, acute cellular events can be easily characterized with online continuous fluorescence measurements without human intervention. The 3-D cell-based assay system was thus applied to test the response of ES-GFP cells to a surfactant, Triton X-100 (Sigma Chemical Company, St. Louis, Mo.). ES-GFP cells in the 3-D system were cultured to reach a high density with 2000 RFU fluorescence intensity. After applying different doses of Triton X-100, the culture plate was immediately put into the plate reader (Cytofluor Series 4000) at 37° C., with the cycle number set at 80 and cycle time at 3 min. The mixing time before each reading was 10 seconds. […] In general, increasing the surfactant concentration in the medium increased cell death, which followed a first order kinetics as indicated by the linear semilogarithmic plot (FIG. 10B). Triton X-100 is a non-ionic detergent commonly used to solubilize membrane proteins. The specific death rate kd at each Triton X-100 concentration can be estimated from the negative slope of the semi-log plots. […] The loss in the fluorescence signal for the control experiment without the surfactant was negligible and the slight decrease could be attributed to a slow increase in the medium pH outside the CO2 incubator. GFP fluorescence is marginally affected by the solution pH when it is in the neutral pH range.

ES-GFP cells [10] = experiment: Effect of fibronectin coating of PET matrix on ES-GFP cell growth; assay type: cell-based
Protocol: Similarly, ES-GFP cells were used to study the effects of fibronectin coating of the PET matrix on cell growth. Fibronectin is involved in many cellular processes, one of which is to serve as a general cell adhesion molecule to help cells anchor onto proteoglycan or collagen substrates. Fibronectin is a commonly used extracellular matrix protein to enhance cell adhesion on the tissue scaffold. PET matrices were soaked in 10 μg/ml fibronectin (Sigma Chemical Company, St. Louis, Mo.) for 12 hours before use. The fibronectin-coated matrices were then placed in the growth medium and seeded with ES-GFP cells from the top of the scaffolds. […] Also, cells cultured in the fibronectin-coated matrix reached a maximum fluorescence intensity of 4000 RFU that was ˜2.5 times of that without fibronectin coating at 128 h. […] Cell spreading can also stimulate cell proliferation and contributes to uniform cell distribution in the 3-D matrix, which in turn allowed more light emission from the matrix. It is noted that cells developed different morphologies in these two matrices, with large aggregates formed in the matrix without fibronectin coating (FIG. 9D). The formation of large cell aggregates could add additional mass transfer limitation and further reduce cell growth. The adhesion of cells to PET fibers is important to determine the cell growth in the 3-D matrix.

[11] = concentration causing 50% reduction in exponential-phase specific growth rate, drug added one day after seeding

Molecule: O=c1[nH]cc(F)c(=O)[nH]1 [5-FU, 5-fluorouracil]
- 2-D with fluorescence, cytotoxicity concentration (HT-29-GFP [1]; human): 0.052 to 0.26 µg/mL
- 3-D with fluorescence, cytotoxicity concentration (HT-29-GFP [1]; human): 0.26 to 1.3 µg/mL
- IC50 (ES cells [2]; [11]): 0.035 µg/mL (≈ 0.269 µM)
- ZEBET IC50 (embryonic stem cell [3]): 0.09 µg/mL
- IC50 (HT-29-GFP [4]; HT-29-GFP 2-D): < 0.26 µg/mL
- ECVAM IC50 (embryonic stem cell [5]): 0.065 µg/mL
- Tumor-like response assays, cytotoxicity concentration (HT-29-GFP [6]; human): 10 to 100 µg/mL
- effect on HT-29 proliferation in perfusion culture (HT-29): significantly reduced cell proliferation; also recorded: significantly inhibited
- effect on ES tissue constructs (ES cells [7]; 100 μg/ml, 3-D high density): no significant effect
- Extent of cell kill (ES cells [7]): 20%
- Rf (resistance factor) (ES cells [7]): >1000
- IC50 (ES cells [8]): 0.045 µg/mL (≈ 0.346 µM)

Molecule: C[C@@H]1C[C@H]2[C@@H]3CCC4=CC(=O)C=C[C@]4(C)[C@@]3(F)[C@@H](O)C[C@]2(C)[C@@]1(O)C(=O)CO [DM, dexamethasone]
- IC50 (ES cells [2]; [11]): 11.5 µg/mL (≈ 29.3 µM)
- Ig50 in 2-D as times of Ig50 in 3-D (ES cells [2]): 3 times
- Extent of cell kill (ES cells [7]): 80.9%
- EC50 (ES cells [7]; 144 h, read-out: EC50): 65 µg/mL (≈ 166 µM)
- Rf (resistance factor) (ES cells [7]): 5.7
- IC50 (ES cells [8]): 32 µg/mL (≈ 81.5 µM)

Molecule: O=C1NC(=O)C(c2ccccc2)(c2ccccc2)N1 [DPH, diphenylhydantoin]
- IC50 (ES cells [2]; [11]): 39 µg/mL (≈ 155 µM)
- Extent of cell kill (ES cells [7]): 52.2%
- EC50 (ES cells [7]; 144 h, read-out: EC50): 600 µg/mL (≈ 2380 µM)
- Rf (resistance factor) (ES cells [7]): 15.4
- IC50 (ES cells [8]): 30 µg/mL (≈ 119 µM)

Molecule: Nc1ccn([C@@H]2O[C@H](CO)[C@@H](O)C2(F)F)c(=O)n1 [Gemcitabine, gemcitabine]
- 2-D with fluorescence, cytotoxicity concentration (HT-29-GFP [1]; human): 0.625 µM
- 3-D with fluorescence, cytotoxicity concentration (HT-29-GFP [1]; human): 0.001 to 0.005 µM
- IC50 (HT-29-GFP [4]; HT-29-GFP 2-D): 0.005 µM
- times more resistance in tumor-like structure (HT-29-GFP [6]): (more than 1000 times
- Tumor-like response assays, cytotoxicity concentration (HT-29-GFP [6]; human): >1000 µM
- effectiveness on high density colon cancer cells (HT-29-GFP [6]): non-effective)
- effectiveness on high density colon cancer cells (HT-29-GFP [6]; listed as gemcitabine): totally resistant

Molecule: CC1(C)S[C@@H]2[C@H](NC(=O)Cc3ccccc3)C(=O)N2[C@H]1C(=O)O [Penicillin G, penicillin G]
- 3-D cultures Ig50 (ES cells [2]; [11]): 750 µg/mL
- Ig50 in 2-D as times of Ig50 in 3-D (ES cells [2]): 6 times
- ZEBET IC50 (embryonic stem cell [3]): 2100 µg/mL
- ECVAM IC50 (embryonic stem cell [5]): 2000 µg/mL
- EC50 (ES cells [7]): 23000 µg/mL (≈ 68800 µM)
- Extent of cell kill (ES cells [7]): 62.3%
- Rf (resistance factor) (ES cells [7]): 30.7
- 2-D cultures Ig50 (ES cells [8]): 4500 µg/mL

Molecule: CCCC(=O)[O-].[Na+] [Sodium butyrate, sodium butyrate]
- 3-D with fluorescence, cytotoxicity concentration (HT-29-GFP [1]; 3-D low density, lowest concentration causing significant difference of fluorescent kinetics vs control): 2000 to 8000 µM
- 2-D with fluorescence, cytotoxicity concentration (HT-29-GFP [1]; lowest concentration causing significant difference of fluorescent kinetics vs control): 8000 to 32000 µM
- IC50 (HT-29-GFP [4]): 2000 µM
- times more resistance in tumor-like structure (HT-29-GFP [6]): (about 10 times
- times more resistance in tumor-like structure (HT-29-GFP [6]; listed as sodium butyrate): 10 times
- Tumor-like response assays, cytotoxicity concentration (HT-29-GFP [6]; drug added at high density): 10000 to 100000 µM
- time after drug adding at which fluorescence changed (HT-29-GFP [6]): changed one day
- time after drug adding at which fluorescence changed (HT-29-GFP [6]; listed as sodium butyrate): one

Molecule: Triton X-100
- acute cellular response (loss in culture fluorescence) (ES-GFP cells [9]): caused an acute cell death

Molecule: fibronectin
- specific growth rate (ES-GFP cells [10]; PET matrices soaked in 10 μg/ml fibronectin, without coating 0.0335): 0.0458 h⁻¹
- maximum fluorescence intensity relative to that without fibronectin coating (ES-GFP cells [10]; at 128 h): ~2.5 times
- maximum fluorescence intensity (ES-GFP cells [10]; fibronectin-coated matrix, 128 h): 4000 RFU
- doubling time (ES-GFP cells [10]; with fibronectin coating, without coating 20.7): 15.1 h
- enhancement of specific growth rate (ES-GFP cells [10]; with vs without fibronectin coating): 37%
